Data reported in ChEMBL document CHEMBL5052842, “Pharmaceutical compounds and their use as inhibitors of ubiquitin specific protease 19 (usp19)” (2020).

Molecular target: T1, Ubiquitin carboxyl-terminal hydrolase 19 (Homo sapiens, UniProt O94966)
T1 sequence (O94966 whole entry): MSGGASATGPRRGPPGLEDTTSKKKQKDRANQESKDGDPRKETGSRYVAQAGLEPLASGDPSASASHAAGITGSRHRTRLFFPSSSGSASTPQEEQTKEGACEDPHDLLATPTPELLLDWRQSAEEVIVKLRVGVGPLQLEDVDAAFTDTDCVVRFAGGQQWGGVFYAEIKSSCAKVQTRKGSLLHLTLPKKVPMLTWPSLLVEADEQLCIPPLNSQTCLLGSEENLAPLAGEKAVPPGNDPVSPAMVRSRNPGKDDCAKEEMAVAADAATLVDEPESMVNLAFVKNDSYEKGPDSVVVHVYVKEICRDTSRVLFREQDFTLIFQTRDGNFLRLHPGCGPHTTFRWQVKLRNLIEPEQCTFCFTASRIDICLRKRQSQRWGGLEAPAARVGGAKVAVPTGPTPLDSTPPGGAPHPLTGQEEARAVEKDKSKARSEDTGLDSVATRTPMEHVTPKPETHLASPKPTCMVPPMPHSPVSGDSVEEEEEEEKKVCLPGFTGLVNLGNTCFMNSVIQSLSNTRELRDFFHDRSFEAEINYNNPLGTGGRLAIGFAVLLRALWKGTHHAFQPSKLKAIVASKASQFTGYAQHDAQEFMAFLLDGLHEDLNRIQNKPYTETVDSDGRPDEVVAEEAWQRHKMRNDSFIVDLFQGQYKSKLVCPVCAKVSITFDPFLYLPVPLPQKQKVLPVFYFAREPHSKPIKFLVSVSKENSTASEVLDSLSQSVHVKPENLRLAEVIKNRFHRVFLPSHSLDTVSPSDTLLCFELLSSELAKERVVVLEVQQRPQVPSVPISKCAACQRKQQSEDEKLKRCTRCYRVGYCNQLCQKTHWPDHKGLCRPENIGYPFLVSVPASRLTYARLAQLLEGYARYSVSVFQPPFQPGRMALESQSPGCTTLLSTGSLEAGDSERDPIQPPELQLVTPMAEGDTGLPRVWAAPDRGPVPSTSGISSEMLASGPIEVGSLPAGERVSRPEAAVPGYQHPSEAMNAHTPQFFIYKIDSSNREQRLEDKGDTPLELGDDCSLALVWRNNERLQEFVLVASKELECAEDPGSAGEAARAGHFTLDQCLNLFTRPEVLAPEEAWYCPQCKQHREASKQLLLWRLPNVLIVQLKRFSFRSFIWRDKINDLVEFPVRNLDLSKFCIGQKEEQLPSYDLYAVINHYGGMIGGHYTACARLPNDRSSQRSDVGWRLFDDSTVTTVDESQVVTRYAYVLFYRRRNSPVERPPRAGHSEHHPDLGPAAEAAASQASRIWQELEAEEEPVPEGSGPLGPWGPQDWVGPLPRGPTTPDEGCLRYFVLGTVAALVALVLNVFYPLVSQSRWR
Assay: Inhibition of C-terminal His6-tagged recombinant human USP19 using iso-peptide ubiquitin-Lys-TAMRA as substrate incubated for 30 mins and measured after 90 mins by fluorescent polarization assay

SMILES | IC50 [nM]
COc1ccc(-c2cc(=O)n(C[C@]3(O)CCN(C(=O)N4CCNC[C@H]4c4ccccc4)CC34CCCC4)cn2)s1 | < 500
O=C(N1CCC(O)(Cn2cnc(-c3ccccc3)cc2=O)CC1)N1CCNC[C@H]1c1ccccc1 | < 500
CC1(C)CN(C(=O)N2CCNC[C@H]2c2ccccc2)CC[C@@]1(O)Cn1ccc(-c2ccccc2)cc1=O | < 500
COc1ccc(-c2cc(=O)n(C[C@]3(O)CCN(C(=O)N4CCNC[C@H]4c4ccccc4)CC34CCCC4)cn2)cc1 | < 500
O=C(N1CC[C@@](O)(Cn2ccc(Cl)cc2=O)C2(CCCC2)C1)N1CCNC[C@H]1c1ccccc1 | < 500
Cc1cccc(-c2cc(=O)n(C[C@]3(O)CCN(C(=O)N4CCNC[C@H]4c4ccccc4)CC34CCCC4)cn2)c1 | < 500
O=C(N1CC[C@@](O)(Cn2cnc(-c3ccc(F)cc3)cc2=O)C2(CCCC2)C1)N1CCNC[C@H]1c1ccccc1 | < 500
CN1CCN(C(=O)N2CC[C@@](O)(Cn3cnc(-c4ccccc4)cc3=O)C3(CCCC3)C2)[C@H](c2ccccc2)C1 | < 500
C[C@H](CC1CCCCC1)C(=O)N1CCC(O)(Cn2cnc3c(cnn3-c3ccccc3)c2=O)C2(CCCC2)C1 (stereo partly drawn) | < 500
C[C@H](CC1CCCCC1)C(=O)N1CCC(O)(Cn2cc(S(C)(=N)=O)c(Cl)cc2=O)C2(CCCC2)C1 (stereo partly drawn) | < 500
O=C(N1CC[C@@](O)(Cn2cnc(N3CC(F)(F)C3)cc2=O)C2(CCCC2)C1)N1CCNC[C@H]1c1ccccc1 | < 500
O=C(N1CCC(O)(Cn2cnc3c(cnn3-c3ccccc3)c2=O)C2(CCCC2)C1)N1CCNC[C@H]1c1ccccc1 (stereo partly drawn) | < 500
O=C(N1CC[C@@](O)(Cn2cnc(C3CC3)cc2=O)C2(CCCC2)C1)N1CCNC[C@H]1c1cc(F)ccc1F | < 500
C[C@H](CC1CCCCC1)C(=O)N1CCC(O)(Cn2cc(C(=O)N3CCNCC3)ncc2=O)C2(CCCC2)C1 (stereo partly drawn) | < 500
N=S1(=O)CCN(C(=O)N2CC[C@@](O)(Cn3cnc(-c4ccccc4)cc3=O)C3(CCCC3)C2)C(c2ccccc2)C1 (stereo partly drawn) | < 500
O=C(N1CC[C@@](O)(Cn2cnc(-c3cccc(F)c3)cc2=O)C2(CCCC2)C1)N1CCNC[C@H]1c1cccc(F)c1 | < 500
COc1cccc(-c2cc(=O)n(C[C@]3(O)CCN(C(=O)N4CCNC[C@H]4c4ccccc4)CC34CCCC4)cn2)c1 | < 500
C[C@H](CC(F)(F)F)C(=O)N1CCC(O)(CN2CCN(c3ccccc3)CC2=O)C2(CCCC2)C1 (stereo partly drawn) | < 500
O=C(NCc1c(F)cccc1F)N1CC[C@@](O)(Cn2cnc(-c3ccccc3)cc2=O)C2(CCCC2)C1 | < 500
CS(=N)(=O)c1cn(CC2(O)CCN(C(=O)N3CCNC[C@H]3c3ccccc3)CC23CCCC3)c(=O)cc1-c1ccccc1 (stereo partly drawn) | < 500
CSc1ncc2c(=O)n(C[C@]3(O)CCN(C(=O)N4CCNC[C@H]4c4ccccc4)CC34CCCC4)ccc2n1 | < 500

SMILES | IC50 [nM]
O=C(NCc1cccc(F)c1F)N1CC[C@@](O)(Cn2cnc(-c3ccccc3)cc2=O)C2(CCCC2)C1 | < 500
O=C(N1CC[C@@](O)(Cn2ccc(-c3ccccc3)cc2=O)C2(CCCC2)C1)N1CCNC[C@H]1c1cc(F)ccc1F | < 500
O=C(NCc1ccc(F)cc1F)N1CC[C@@](O)(Cn2cnc(-c3ccccc3)cc2=O)C2(CCCC2)C1 | < 500
Cc1cc(=O)n(C[C@]2(O)CCN(C(=O)N3CCNC[C@H]3c3ccccc3)CC23CCCC3)cn1 | < 500
O=C(N1CC[C@@](O)(Cn2cnc(-c3cccc(F)c3F)cc2=O)C2(CCCC2)C1)N1CCNC[C@H]1c1ccccc1 | < 500
C[C@H](CC(F)(F)F)C(=O)N1CCC(O)(CN2CCN(c3ccccn3)CC2=O)C2(CCCC2)C1 (stereo partly drawn) | < 500
CN(C)c1ccc(-c2cc(=O)n(C[C@]3(O)CCN(C(=O)N4CCNC[C@H]4c4ccccc4)CC34CCCC4)cn2)cc1 | < 500
Cc1cccc(F)c1-c1cc(=O)n(C[C@]2(O)CCN(C(=O)N3CCNC[C@H]3c3ccccc3)CC23CCCC3)cn1 | < 500
CSc1cn(CC2(O)CCN(C(=O)[C@H](C)CC3CCCCC3)CC23CCCC3)c(=O)cc1Cl (stereo partly drawn) | < 500
O=C(N1CC[C@@](O)(Cn2cnc(-c3ccccc3)cc2=O)C2(CCCC2)C1)N1CCNC[C@@H]1c1ccccc1 | < 500
Cn1ncc2c(=O)n(CC3(O)CCN(C(=O)N4CCNC[C@H]4c4ccccc4)CC34CCCC4)cnc21 (stereo partly drawn) | < 500
C[C@H](CC1CCCCC1)C(=O)N1CCC(O)(Cn2cc(Cl)ncc2=O)C2(CCCC2)C1 (stereo partly drawn) | < 500
O=C(N1CCC(O)(Cn2cnc3ccc(F)cc3c2=O)C2(CCCC2)C1)N1CCNC[C@H]1c1ccccc1 (stereo partly drawn) | < 500
O=C(N1CCC(O)(Cn2cc(F)c(-c3ccccc3)cc2=O)C2(CCCC2)C1)N1CCNC[C@H]1c1ccccc1 (stereo partly drawn) | < 500
O=C(N[C@H](c1ccccc1)C(F)(F)F)N1CC[C@@](O)(Cn2cnc(-c3ccccc3)cc2=O)C2(CCCC2)C1 | < 500
C[C@H](CC1CCCCC1)C(=O)N1CCC(O)(Cn2cnc3cc(F)c(Cl)cc3c2=O)C2(CCCC2)C1 (stereo partly drawn) | < 500
O=C(NCc1cccs1)N1CC[C@@](O)(Cn2cnc(-c3ccccc3)cc2=O)C2(CCCC2)C1 | < 500
C[C@H](CC1CCCCC1)C(=O)N1CCC(O)(Cn2cc(S(C)(=O)=O)c(-c3ccccc3)cc2=O)C2(CCCC2)C1 (stereo partly drawn) | < 500
O=C(N1CC[C@@](O)(Cn2cnc(N3CC4CC4C3)cc2=O)C2(CCCC2)C1)N1CCNC[C@H]1c1cc(F)ccc1F (stereo partly drawn) | < 500
O=C(N1CC[C@@](O)(Cn2cnc(-c3ccccc3)cc2=O)C2(CCCC2)C1)N1CCNCC1c1cc(F)cc(F)c1 (stereo partly drawn) | < 500
O=C(N1CC[C@@](O)(Cn2cnc(C3CC3)cc2=O)C2(CCCC2)C1)N1CCNC[C@H]1c1ccccc1 | < 500

SMILES | IC50 [nM]
O=C(N1CC[C@@](O)(Cn2cnc(-c3ccccc3)cc2=O)C2(CCCC2)C1)N1CCOC[C@H]1c1ccc(F)cc1 | < 500
O=C(N1CC[C@@](O)(Cn2cnc(-c3ccsc3)cc2=O)C2(CCCC2)C1)N1CCNC[C@H]1c1ccccc1 | < 500
O=C(N1CC[C@@](O)(Cn2cnc(-c3ccc4c(c3)COC4)cc2=O)C2(CCCC2)C1)N1CCNC[C@H]1c1ccccc1 | < 500
O=C(NCc1ccccc1F)N1CCC(O)(Cn2cnc(-c3ccccc3)cc2=O)C2(CCCC2)C1 (stereo not drawn) | < 500
Cc1cn(CC2(O)CCN(C(=O)N3CCNC[C@H]3c3ccccc3)CC23CCCC3)c(=O)cn1 (stereo partly drawn) | < 500
O=C(N1CC[C@@](O)(Cn2cnc(N3CCC(F)(F)CC3)cc2=O)C2(CCCC2)C1)N1CCNC[C@H]1c1ccccc1 | < 500
O=C(N1CC[C@@](O)(Cn2cnc(N3CCCCC3)cc2=O)C2(CCCC2)C1)N1CCNC[C@H]1c1ccccc1 | < 500
CSc1ncc2c(=O)n(CC3(O)CCN(C(=O)[C@H](C)CC4CCCCC4)CC34CCCC4)cnc2n1 (stereo partly drawn) | < 500
CC1(C)CN(C(=O)N2CCOC[C@H]2c2ccccc2)CC[C@@]1(O)Cn1ccc(-c2ccccc2)cc1=O | < 500
O=C(N1CC[C@@](O)(Cn2cnc(-c3cccc(F)c3)cc2=O)C2(CCCC2)C1)N1CCNC[C@H]1c1cc(F)ccc1F | < 500
Cn1cc(-c2cc(=O)n(C[C@]3(O)CCN(C(=O)N4CCNC[C@H]4c4ccccc4)CC34CCCC4)cn2)cn1 | < 500
O=C(N1CC[C@@](O)(Cn2cnc(C3CC3)cc2=O)C2(CCCC2)C1)N1CCOC[C@H]1c1ccccc1 | < 500
CNc1cc(=O)n(C[C@]2(O)CCN(C(=O)N3CCNC[C@H]3c3ccccc3)CC23CCCC3)cn1 | < 500
CN(C)C(=O)c1cn(CC2(O)CCN(C(=O)N(C)CC3CCCCC3)CC23CCCC3)c(=O)cc1-c1ccccc1 (stereo not drawn) | < 500
O=C(N1CC[C@@](O)(Cn2cnc(-c3ccccc3)cc2=O)C2(CCCC2)C1)N1CCNC[C@H]1c1ccc(F)cc1F | < 500
O=C(N1CCC(O)(Cn2cnc3c(cnn3Cc3ccccc3)c2=O)C2(CCCC2)C1)N1CCNC[C@H]1c1ccccc1 (stereo partly drawn) | < 500
C[C@H](CC1CCCCC1)C(=O)N1CCC(O)(Cn2cc(Br)ncc2=O)C2(CCCC2)C1 (stereo partly drawn) | < 500
CC1(C)CN(C(=O)N2CCNC[C@H]2c2ccccc2)CC[C@@]1(O)Cn1cnc(-c2ccccc2)cc1=O | < 500
O=C(N1CC[C@@](O)(Cn2cnc(N3CCCC3)cc2=O)C2(CCCC2)C1)N1CCNC[C@H]1c1ccccc1 | < 500
O=C(N1CC[C@@](O)(Cn2ccc(N3CCCC3)cc2=O)C2(CCCC2)C1)N1CCNC[C@H]1c1ccccc1 | < 500
O=C(N1CC[C@@](O)(Cn2cnc(-c3ccc4c(c3)OCC4)cc2=O)C2(CCCC2)C1)N1CCNC[C@H]1c1ccccc1 | < 500
